Source: patent US20080139626A1, “Novel Method” (priority 2005, published 2008)
Converted amounts (≈) assume the structure as drawn.

Tests used:
[1] = test system: methicillin resistant S. aureus WCUH29; assay: murine groin abscess infection model, oral efficacy; type: in vivo; details: mouse; for reduction of bacterial counts compared to non-treated controls: oral, p≦0.01
Experimental: Oral efficacy of Compound A was evaluated in a murine groin abscess infection model caused by a methicillin resistant S. aureus WCUH29. Animals were infected via subcutaneous injection into the groin with 0.5 mL of inoculum (approximately 5.7 log10 cfu/mouse). Groups of mice (n=5) received either Compound A (100, 300 or 600 mg/kg), moxifloxacin (100 mg/kg) or azithromycin (50 mg/kg).

[2] = test system: S. pneumoniae (macrolide-resistant); assay: MIC by broth microdilution; type: cell-based; details: N=552; for MIC50 / MIC90: Streptococcus pneumoniae
Experimental: (§1) Whole-cell antimicrobial activity was determined by broth microdilution. Test compounds were dissolved in DMSO and diluted 1:10 in water to produce a 64 mcg/ml stock solution. Using a 96 well microtitre plate, a Microlab AT Plus 2 (Hamilton Co., Reno, Nev.) serially diluted 50 ul of the stock solution into an appropriate broth medium. Staphylococcal isolates were tested using cation adjusted Mueller Hinton broth. For S. pneumonaie testing, the Mueller Hinton broth was supplemented with 5% lysed horse blood and H. influenzae was tested with Haemophilus Test Medium. After the compounds were diluted, a 50 ul aliquot of the test isolate (˜1×10^6 cfu/ml) prepared in normal saline was added to each well of the microtitre plate. The final test concentrations ranged from 0.016-16 ug/mL. Inoculated plates were incubated at 35° C. in ambient air for 18 to 24 hours. The minimum inhibitory concentration (MIC) was determined as the lowest concentration of compound that inhibited visible growth.

[3] = test system: S. pneumoniae (levofloxacin-resistant); assay: MIC by broth microdilution; type: cell-based; details: N=13; for MIC50 / MIC90: Streptococcus pneumoniae
Experimental: as §1

[4] = test system: S. aureus (methicillin-resistant); assay: MIC by broth microdilution; type: cell-based; details: N=51; for MIC50 / MIC90: Staphylococcus aureus
Experimental: as §1

[5] = test system: S. pyogenes (macrolide-resistant); assay: MIC by broth microdilution; type: cell-based; details: N=83; for MIC50 / MIC90: Streptococcus pyogenes
Experimental: as §1

[6] = test system: S. pneumoniae (penicillin-resistant); assay: MIC by broth microdilution; type: cell-based; details: N=352; for MIC50 / MIC90: Streptococcus pneumoniae
Experimental: as §1

[7] = test system: H. influenzae ClarR; assay: MIC by broth microdilution; type: cell-based; details: 5 isolates
Experimental: as §1

[8] = test system: S. epidermidis Meth^R; assay: MIC by broth microdilution; type: cell-based; details: 6 isolates
Experimental: as §1

[9] = test system: S. pneumoniae Pen^R; assay: MIC by broth microdilution; type: cell-based; details: 5 isolates
Experimental: as §1

[10] = test system: S. pneumoniae Eryth^R; assay: MIC by broth microdilution; type: cell-based; details: 5 isolates
Experimental: as §1

[11] = test system: S. aureus Meth^R/Ery^R; assay: MIC by broth microdilution; type: cell-based; details: 10 isolates
Experimental: as §1

[12] = test system: S. aureus Mupirocin^R; assay: MIC by broth microdilution; type: cell-based; details: 8 isolates
Experimental: as §1

[13] = test system: S. aureus Tetracycline^R; assay: MIC by broth microdilution; type: cell-based; details: 6 isolates
Experimental: as §1

[14] = test system: S. pneumoniae Cipro^R; assay: MIC by broth microdilution; type: cell-based; details: 5 isolates
Experimental: as §1

[15] = test system: S. aureus Ketek^R; assay: MIC by broth microdilution; type: cell-based; details: 4 isolates
Experimental: as §1

[16] = test system: H. influenzae BLNAR; assay: MIC by broth microdilution; type: cell-based; details: 5 isolates
Experimental: as §1

[17] = test system: S. aureus Linezolid^R; assay: MIC by broth microdilution; type: cell-based; details: 3 isolates
Experimental: as §1

[18] = test system: S. aureus VRSA (vanc MIC > 4 μg/mL); assay: MIC by broth microdilution; type: cell-based; details: 2 isolates
Experimental: as §1

[19] = test system: S. aureus VISA (vanc. MIC 4 μg/mL); assay: MIC by broth microdilution; type: cell-based; details: 4 isolates
Experimental: as §1

Structure (SMILES): CC[C@H]1OC(=O)[C@H](C)[C@@H](O[C@H]2C[C@@](C)(OC)[C@@H](O)[C@H](C)O2)[C@H](C)[C@@H](O[C@@H]2O[C@H](C)C[C@H](N(C)C)[C@H]2O)[C@](C)(O)C[C@@H](C)CN(C)[C@H](C)[C@@H](O)[C@]1(C)O [Azithromycin]
- reduction of bacterial counts ([1]; 50 mg/kg): 3.4 log10 cfu/abscess
- MIC50 [2]: > 16 µg/mL
- MIC90 [2]: > 16 µg/mL
- MIC50 [3]: 16 µg/mL (≈ 21.4 µM)
- MIC90 [3]: > 16 µg/mL
- MIC50 [4]: > 16 µg/mL
- MIC90 [4]: > 16 µg/mL
- MIC50 [5]: 16 µg/mL (≈ 21.4 µM)
- MIC90 [5]: > 16 µg/mL
- MIC50 [6]: > 16 µg/mL
- MIC90 [6]: > 16 µg/mL

Structure (SMILES): CO/N=C(\C(=O)N[C@@H]1C(=O)N2C(C(=O)O)=C(COC(N)=O)CS[C@H]12)c1ccco1 [Cefuroxime]
- MIC Range [2]: ≦0.015-32 μg/mL
- MIC50 [2]: 4 µg/mL (≈ 9.43 µM)
- MIC90 [2]: 8 µg/mL (≈ 18.9 µM)
- MIC Range [3]: ≦0.015-8 μg/mL
- MIC50 [3]: 2 µg/mL (≈ 4.71 µM)
- MIC90 [3]: 8 µg/mL (≈ 18.9 µM)
- MIC50 [4]: 4 µg/mL (≈ 9.43 µM)
- MIC90 [4]: > 32 µg/mL
- MIC Range [5]: ≦0.015-0.12 μg/mL
- MIC50 [5]: ≤ 0.015 µg/mL
- MIC90 [5]: ≤ 0.015 µg/mL
- MIC Range [6]: 1 to 32 µg/mL
- MIC50 [6]: 4 µg/mL (≈ 9.43 µM)
- MIC90 [6]: 8 µg/mL (≈ 18.9 µM)

Structure (SMILES): C=C[C@]1(C)C[C@@H](OC(=O)NC(=O)c2cnc(OC)c(N)c2)[C@]2(C)C(C)CC[C@]3(C[C@H](O)C(=O)[C@H]32)[C@@H](C)[C@@H]1O (stereo partly shown) [Compound A]
- reduction of bacterial counts compared to non-treated controls ([1]; 300 mg/kg): 3.6 log10 cfu/abscess
- reduction of bacterial counts compared to non-treated controls ([1]; 600 mg/kg): 4.3 log10 cfu/abscess
- MIC Range [7]: 4 to 8 µg/mL
- MIC Range [2]: 0.015 to 1 µg/mL
- MIC50 [2]: 0.25 µg/mL (≈ 0.472 µM)
- MIC90 [2]: 0.25 µg/mL (≈ 0.472 µM)
- MIC Range [3]: 0.12 to 0.5 µg/mL
- MIC50 [3]: 0.25 µg/mL (≈ 0.472 µM)
- MIC90 [3]: 0.5 µg/mL (≈ 0.944 µM)
- MIC Range [8]: 0.25 to 1 µg/mL
- MIC Range [9]: 0.06 to 0.25 µg/mL
- MIC Range [4]: 0.25 to 2 µg/mL
- MIC50 [4]: 1 µg/mL (≈ 1.89 µM)
- MIC90 [4]: 1 µg/mL (≈ 1.89 µM)
- MIC Range [10]: 0.125 to 0.25 µg/mL
- MIC Range [5]: 0.12 to 0.25 µg/mL
- MIC50 [5]: 0.25 µg/mL (≈ 0.472 µM)
- MIC90 [5]: 0.25 µg/mL (≈ 0.472 µM)
- MIC Range [11]: 0.5 to 2 µg/mL
- MIC Range [12]: 0.25 to 1 µg/mL
- MIC Range [13]: 0.5 to 2 µg/mL
- MIC Range [14]: 0.125 to 0.25 µg/mL
- MIC Range [15]: 0.5 to 4 µg/mL
- MIC Range [6]: 0.03 to 1 µg/mL
- MIC50 [6]: 0.25 µg/mL (≈ 0.472 µM)
- MIC90 [6]: 0.25 µg/mL (≈ 0.472 µM)
- MIC Range [16]: 2 µg/mL (≈ 3.78 µM)
- MIC Range [17]: 2 µg/mL (≈ 3.78 µM)
- MIC Range [18]: 0.5 µg/mL (≈ 0.944 µM)
- MIC Range [19]: 0.5 to 4 µg/mL

Structure (SMILES): C[C@H]1COc2c(N3CCN(C)CC3)c(F)cc3c(=O)c(C(=O)O)cn1c23 [Levofloxacin]
- MIC50 [2]: 1 µg/mL (≈ 2.77 µM)
- MIC90 [2]: 2 µg/mL (≈ 5.53 µM)
- MIC50 [3]: > 8 µg/mL
- MIC90 [3]: > 8 µg/mL
- MIC50 [4]: 0.5 µg/mL (≈ 1.38 µM)
- MIC90 [4]: > 8 µg/mL
- MIC Range [5]: 0.12 to 2 µg/mL
- MIC50 [5]: 0.5 µg/mL (≈ 1.38 µM)
- MIC90 [5]: 1 µg/mL (≈ 2.77 µM)
- MIC50 [6]: 1 µg/mL (≈ 2.77 µM)
- MIC90 [6]: 1 µg/mL (≈ 2.77 µM)

Structure (SMILES): COc1c(N2C[C@@H]3CCCN[C@@H]3C2)c(F)cc2c(=O)c(C(=O)O)cn(C3CC3)c12 [Moxifloxacin]
- reduction of bacterial counts ([1]; 100 mg/kg): 4.6 log10 cfu/abscess
- MIC50 [2]: 0.12 µg/mL (≈ 0.299 µM)
- MIC90 [2]: 0.25 µg/mL (≈ 0.623 µM)
- MIC50 [3]: 4 µg/mL (≈ 9.96 µM)
- MIC90 [3]: 8 µg/mL (≈ 19.9 µM)
- MIC50 [4]: 0.12 µg/mL (≈ 0.299 µM)
- MIC90 [4]: 4 µg/mL (≈ 9.96 µM)
- MIC Range [5]: 0.06 to 0.5 µg/mL
- MIC50 [5]: 0.12 µg/mL (≈ 0.299 µM)
- MIC90 [5]: 0.25 µg/mL (≈ 0.623 µM)
- MIC50 [6]: 0.12 µg/mL (≈ 0.299 µM)
- MIC90 [6]: 0.25 µg/mL (≈ 0.623 µM)

Structure (SMILES): CC[C@H]1OC(=O)[C@H](C)C(=O)[C@H](C)[C@@H](O[C@@H]2O[C@H](C)C[C@H](N(C)C)[C@H]2O)[C@](C)(OC)C[C@@H](C)C(=O)[C@H](C)[C@H]2N(CCCCn3cnc(-c4cccnc4)c3)C(=O)O[C@]12C [Telithromycin]
- MIC Range [2]: ≦0.002-16 μg/mL
- MIC50 [2]: 0.25 µg/mL (≈ 0.308 µM)
- MIC90 [2]: 2 µg/mL (≈ 2.46 µM)
- MIC Range [3]: ≦0.002-2 μg/mL
- MIC50 [3]: 0.12 µg/mL (≈ 0.148 µM)
- MIC90 [3]: 0.5 µg/mL (≈ 0.616 µM)
- MIC50 [4]: 0.25 µg/mL (≈ 0.308 µM)
- MIC90 [4]: > 16 µg/mL
- MIC50 [5]: 0.03 µg/mL (≈ 0.0369 µM)
- MIC90 [5]: 8 µg/mL (≈ 9.85 µM)
- MIC Range [6]: ≦0.002-16 μg/mL
- MIC50 [6]: 0.25 µg/mL (≈ 0.308 µM)
- MIC90 [6]: 2 µg/mL (≈ 2.46 µM)
